Results on one compound are retold here after ChEMBL document CHEMBL5726478, “Histone demethylase inhibitors” (2019).

This assay concerns the target T1, Lysine-specific demethylase 4C (Homo sapiens, UniProt Q9H3R0).
T1 sequence (Q9H3R0 whole entry): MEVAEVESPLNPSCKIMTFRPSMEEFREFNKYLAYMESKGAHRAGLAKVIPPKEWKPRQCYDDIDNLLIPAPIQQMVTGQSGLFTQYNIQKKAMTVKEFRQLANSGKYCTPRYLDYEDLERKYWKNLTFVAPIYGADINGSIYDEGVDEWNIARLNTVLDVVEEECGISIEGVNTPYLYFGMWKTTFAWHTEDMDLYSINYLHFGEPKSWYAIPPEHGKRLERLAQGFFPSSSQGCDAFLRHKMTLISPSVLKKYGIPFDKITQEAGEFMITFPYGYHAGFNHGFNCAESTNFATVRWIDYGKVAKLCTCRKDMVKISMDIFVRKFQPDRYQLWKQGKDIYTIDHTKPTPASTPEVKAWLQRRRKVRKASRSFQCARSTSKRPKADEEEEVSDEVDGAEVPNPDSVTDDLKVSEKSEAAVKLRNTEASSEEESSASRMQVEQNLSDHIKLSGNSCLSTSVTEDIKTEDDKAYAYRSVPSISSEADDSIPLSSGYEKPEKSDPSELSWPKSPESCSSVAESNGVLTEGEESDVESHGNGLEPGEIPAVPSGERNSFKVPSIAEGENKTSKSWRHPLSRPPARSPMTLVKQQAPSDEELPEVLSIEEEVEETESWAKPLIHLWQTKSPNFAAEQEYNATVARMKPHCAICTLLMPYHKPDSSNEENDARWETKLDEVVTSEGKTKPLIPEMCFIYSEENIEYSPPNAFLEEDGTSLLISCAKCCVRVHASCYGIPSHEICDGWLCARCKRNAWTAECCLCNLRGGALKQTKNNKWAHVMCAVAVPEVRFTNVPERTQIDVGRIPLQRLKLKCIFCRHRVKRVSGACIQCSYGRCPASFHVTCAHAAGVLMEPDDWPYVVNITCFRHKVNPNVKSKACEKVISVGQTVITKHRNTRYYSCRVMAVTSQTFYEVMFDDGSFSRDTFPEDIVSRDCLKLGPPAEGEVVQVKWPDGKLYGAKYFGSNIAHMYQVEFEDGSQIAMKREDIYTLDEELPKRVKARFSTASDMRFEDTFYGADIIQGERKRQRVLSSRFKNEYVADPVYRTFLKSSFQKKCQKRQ
The assay is described as follows: JMJD2C Assay: The ability of test compounds to inhibit the activity of JMJD2C was determined in 384-well plate-format under the following reaction conditions: 0.3 nM JMJD2C, 300 nM H3K9me3-biotin labeled peptide (Anaspec cat #64360), 2 μM alpha-ketoglutaric acid in assay buffer of 50 mM HEPES, pH 7.3, 0.005% Brij35, 0.5 mM TCEP, 0.2 mg/ml BSA, 50 μM sodium L-ascorbate, and 2 μM ammonium iron(II) sulfate. Reaction product was determined quantitatively by TR-FRET after the addition of detection reagent Phycolink Streptavidin-allophycocyanin (Prozyme) and Europium-anti-di-methylated histone H3 lysine 9 (H3K9me2) antibody (PerkinElmer) in the presence of 5 mM EDTA in LANCE detection buffer (PerkinElmer) at a final concentration of 50 nM and 1 nM, respectively.The assay reaction was initiated by the following: 2 μl of the mixture of 900 nM H3K9me3-biotin labeled peptide and 6 μM alpha-ketoglutaric acid with 2 μl of 11-point serial diluted inhibitor in 3% DMSO were added to each well of the plate, followed by the addition of 2 μl of 0.9 nM JMJD2C to initiate the reaction. The reaction mixture was incubated at room temperature for 30 min, and terminated by the addition of 6 μl of 5 mM EDTA in LANCE detection buffer containing 100 nM Phycolink Streptavidin-allophycocyanin and 2 nM Europium-anti-H3K9me2 antibody. […]. Background: Time-resolved FRET reads energy transfer from a long-lived donor to a nearby acceptor.

The structures appear in SMILES notation.

The IC50 is the concentration that gives 50% inhibition. Consider `CC(C)N1CCN(c2cccc(N(C)c3ccc(Oc4nc(O)c5ccncc5n4)cc3)c2)CC1`, for which the half-inhibitory concentration (IC50) was under 100 nM.
